# Measured values from US7258999B2, “PTH responsive gene” (Wyeth, priority 2002, dated 2007).
# Legend:
# [1] = system: PAIGB expression in ROS 17/2.8 cells; experiment: Real time PCR of PAIGB expression in ROS 17/2.8 cells; type: cell-based, rat; conditions: for effect on PAIGB expression after 4 hours of treatment: estrogen 10 nM, tamoxifen 0.1 μM, BMP2 300 ng/ml, calcitonin 5 ng/ml
# From the text: Applicants performed multiplex real time PCR (TaqMan) analysis on previously DNAsed samples using gene specific probe and primers and 18S ribosomal RNA probe and primer sets purchased from Applied Biosystem. (Foster City, Calif.) The samples were DNAsed according to the protocol provided by Ambion (DNA-free kit). TaqMan probe and primers for PAIGB was identify using Primer Express computer program. The sequence for rat PAIGB TaqMan probe was 6FAM-5′[…] (SEQ ID NO: 16) forward and reverse primers were 5′[…] 3′ (SEQ ID NO:17) and 5′ […] 3′ (SEQ ID NO:18) respectively. The final concentrations for probes were 500 nM and 40 nM for PAIGB and 18S ribosomal RNA or GAPDH respectively. The concentrations of the primers were 500 nM for PAIGB forward and reversed primers while 18S primers were 10 and 20 nM for forward and reversed primer respectively or 40 nM for GAPDH primers. Standards for rat samples were made from rat tibia or brain RNA in the range of 250 ng to 0.1 ng, while standards for mouse specific TaqMan were made from mouse brain RNA and human standards from human brain RNA (Clonetech, Palo Alto, Calif.) spanning the same range of concentration. Primers and probes for mouse PAIGB were: forward 5′ […] 3′ (SEQ ID NO:19), reverse, 5′ […] (SEQ ID NO:21). Primers and probes for human PAIGB were: forward 5′ […] 3′ (SEQ ID NO:22), reverse 5′ […] 3′(SEQ ID NO: 24). The Taq-man analysis was done using ABI 7700 Sequence Detector under following conditions: 30 min at 48° C., 10 min at 95° C. and 40 cycles of 15 sec at 95° C. and 60 sec at 60° C. Analysis of real-time PCR analysis was performed using (Sequence Detector, Macintosh) program.
# Five cell types were primarily used in our experiments. Rat osteoblast cell line (ROS 17/2.8) that expresses moderate levels of PTH receptor 1 (Rodan et al, Rev. Eukaryotic Gene Expression 1:85-98, 1991) were used to perform in vitro experiments. ROS cells were maintained under standard cell culture conditions: 10% heat inactivated FBS in Dulbecco's Modified Eagle Medium with Nutrient Mixture F-12 (DMEM/F12) media, 1% Penicillin/Streptomycin and 1% Glutamax. Mouse cell line C3H10T½ (ATCC# CCL226) as a representative of mouse osteoprogenitor cell line were maintained in Eagles Minimal Essential Media (EMEM) with the addition of 10% heat inactivated FBS and 1% Penicillin/Streptomycin and 1% Glutamax. UMR106 rat osteoblastic cells (ATCC# CRL1661) were cultured in Dulbecco's Modified Eagle Medium (DMEM) supplemented with 10% heat inactivated FBS, 1% Penicillin/Streptomycin and 1% Glutamax. The U2OS human osteoblastic cells (ATCC# HTB96) were cultured in McCoy's 5A Medium Modified supplemented with 10% FBS, 1% Penicillin/Streptomycin and 1% Glutamax. The human HOB-03-CE6 cell line (Bodine, V. N. P., et. al., J. Cell. Biochem., 65: 368-387,1997) was maintained in phenol red free DMEM/F12 media supplemented with 10% heat inactivated FBS and 1% Penicillin/Streptomycin and 1% Glutamax.
# ROS 17/2.8 rat osteoblast cell line that express PTH receptor (˜80000 receptors/cell) were treated with increased doses of PTH: 1 nM, 10 nM, 100 nM and 1000 nM. Real time PCR using rat specific Taq-man probes and primers were used to examine the changes in PAIGB expression with PTH treatment.
# Time course of PTH induction of PAIGB expression was examined. ROS 17/2.8_cells were treated with 10 nM PTH and RNA was harvested at 1, 2, 4, 6, 8 and 24 hours post treatment.
# [2] = system: PAIGB expression in UMR106 cells; experiment: Real time PCR of PAIGB expression in UMR106 cells; type: cell-based, rat
# From the text: Applicants performed multiplex real time PCR (TaqMan) analysis on previously DNAsed samples using gene specific probe and primers and 18S ribosomal RNA probe and primer sets purchased from Applied Biosystem. (Foster City, Calif.) The samples were DNAsed according to the protocol provided by Ambion (DNA-free kit). TaqMan probe and primers for PAIGB was identify using Primer Express computer program. The sequence for rat PAIGB TaqMan probe was 6FAM-5′[…] (SEQ ID NO: 16) forward and reverse primers were 5′[…] 3′ (SEQ ID NO:17) and 5′ […] 3′ (SEQ ID NO:18) respectively. The final concentrations for probes were 500 nM and 40 nM for PAIGB and 18S ribosomal RNA or GAPDH respectively. The concentrations of the primers were 500 nM for PAIGB forward and reversed primers while 18S primers were 10 and 20 nM for forward and reversed primer respectively or 40 nM for GAPDH primers. Standards for rat samples were made from rat tibia or brain RNA in the range of 250 ng to 0.1 ng, while standards for mouse specific TaqMan were made from mouse brain RNA and human standards from human brain RNA (Clonetech, Palo Alto, Calif.) spanning the same range of concentration. Primers and probes for mouse PAIGB were: forward 5′ […] 3′ (SEQ ID NO:19), reverse, 5′ […] 3′ (SEQ ID NO:20) anti-sense and probe 5′ 6FAM-[…] (SEQ ID NO:21). Primers and probes for human PAIGB were: forward 5′ […] 3′ (SEQ ID NO:22), reverse 5′ […] […]
compound,measurement,setting,value
CC(C)NCC(O)c1ccc(O)c(O)c1 (stereo not shown) [isoproterenol],increase in PAIGB expression,"[1]; data not shown, concentration and cell line not restated",2 fold
C=C1CC[C@H](O)C/C1=C/C=C1\CCC[C@]2(C)[C@@H]([C@H](C)CCCC(C)C)CC[C@@H]12 [vitamin D3],PAIGB expression in UMR106 cells,[2]; UMR106 cells,induced
CC/C(=C(\c1ccccc1)c1ccc(OCCN(C)C)cc1)c1ccccc1 [tamoxifen],effect on PAIGB expression after 4 hours of treatment,[1]; 4 hours,did not have any effect
"CCCCC[C@H](O)/C=C/[C@H]1[C@H](O)CC(=O)[C@@H]1C/C=C\CCCC(=O)O [PGE2, prostaglandin E2]",induction of PAIGB mRNA expression,"[1]; two concentrations 10 nM and 10 μM, 4 hours",only at the lower dose
Nc1ncnc2c1ncn2C1CCCO1 (stereo not shown) [SQ 22536],blocking of the effect of PTH on PAIGB expression,"[1]; 200 μM, 2 hours pretreatment, then 10 nM PTH 4 hours",completely blocks
C[C@@H]1C[C@H]2[C@@H]3CCC4=CC(=O)C=C[C@]4(C)[C@@]3(F)[C@@H](O)C[C@]2(C)[C@@]1(O)C(=O)CO [dexamethasone],increase in PAIGB expression,"[1]; 100 nM, 4 hours",2-3 fold
COc1ccc(C2CNC(=O)C2)cc1OC1CCCC1 (stereo not shown) [Rolipram],PAIGB expression,"[1]; ROS 17/2.8 cells, data not shown",Increases
same,PAIGB expression,"[2]; UMR 106 cells, data not shown",Increases
calcitonin,effect on PAIGB expression after 4 hours of treatment,[1]; 4 hours,did not have any effect
"PKC inhibitor: Protein Kinase C inhibitor (PKC)19-27, an inhibitor of PKC signaling pathway (RFARKGALR; pseudosubstrate peptide; UniProt P17252 19-27, looked up, fragment)",blocking of PTH induced PAIGB expression,"[1]; 10 μM, 2 hours pretreatment, then 10 nM PTH 4 hours",little to no effect
